From ChEMBL document CHEMBL3045421, “5-Nitro-heteroarylidene analogs of 2-thiazolylimino-4-thiazolidinones as a novel series of antibacterial agents” (2013)
Converted amounts (≈) assume the structure as drawn.

Columns and labels:
Assay type in all cases: functional
Helicobacter pylori [1] = assay: Antibacterial activity against Helicobacter pylori strain 1 assessed as diameter of growth inhibition zone at 8 ug/disk after 3-5 days by filter paper disk diffusion method; conditions: read-out: DIZ
Escherichia coli = assay: microbe, parasite or virus in culture; conditions: ATCC 8739, 24 h
Description: Antibacterial activity against Escherichia coli ATCC 8739 assessed as growth inhibition after 24 hr by microdilution method

Helicobacter pylori [2] = assay: Antibacterial activity against Helicobacter pylori strain 2 assessed as diameter of growth inhibition zone at 32 ug/disk after 3-5 days by filter paper disk diffusion method; conditions: read-out: DIZ
[3] = test system: Staphylococcus epidermidis; assay: microbe, parasite or virus in culture; conditions: ATCC 12228, 24 h
Description: Antibacterial activity against Staphylococcus epidermidis ATCC 12228 assessed as growth inhibition after 24 hr by microdilution method

Helicobacter pylori [4] = assay: Antibacterial activity against Helicobacter pylori strain 2 assessed as diameter of growth inhibition zone at 8 ug/disk after 3-5 days by filter paper disk diffusion method; conditions: read-out: DIZ
Helicobacter pylori [5] = assay: Antibacterial activity against Helicobacter pylori strain 2 assessed as diameter of growth inhibition zone at 16 ug/disk after 3-5 days by filter paper disk diffusion method; conditions: read-out: DIZ
Helicobacter pylori [6] = assay: Antibacterial activity against Helicobacter pylori strain 2 assessed as diameter of growth inhibition zone at 64 ug/disk after 3-5 days by filter paper disk diffusion method; conditions: read-out: DIZ
Bacillus subtilis = assay: microbe, parasite or virus in culture; conditions: ATCC 6633, 24 h
Description: Antibacterial activity against Bacillus subtilis ATCC 6633 assessed as growth inhibition after 24 hr by microdilution method

Staphylococcus aureus = assay: microbe, parasite or virus in culture; conditions: ATCC 6538p, 24 h
Description: Antibacterial activity against Staphylococcus aureus ATCC 6538p assessed as growth inhibition after 24 hr by microdilution method

Helicobacter pylori [7] = assay: Antibacterial activity against Helicobacter pylori strain 3 assessed as diameter of growth inhibition zone at 64 ug/disk after 3-5 days by filter paper disk diffusion method; conditions: read-out: DIZ
Helicobacter pylori [8] = assay: Antibacterial activity against Helicobacter pylori strain 1 assessed as diameter of growth inhibition zone at 16 ug/disk after 3-5 days by filter paper disk diffusion method; conditions: read-out: DIZ
Helicobacter pylori [9] = assay: Antibacterial activity against Helicobacter pylori strain 3 assessed as diameter of growth inhibition zone at 32 ug/disk after 3-5 days by filter paper disk diffusion method; conditions: read-out: DIZ
Klebsiella pneumoniae = assay: microbe, parasite or virus in culture; conditions: ATCC 10031, 24 h
Description: Antibacterial activity against Klebsiella pneumoniae ATCC 10031 assessed as growth inhibition after 24 hr by microdilution method

Helicobacter pylori [10] = assay: Antibacterial activity against Helicobacter pylori strain 3 assessed as diameter of growth inhibition zone at 8 ug/disk after 3-5 days by filter paper disk diffusion method; conditions: read-out: DIZ
Pseudomonas aeruginosa = assay: microbe, parasite or virus in culture; conditions: ATCC 9027, 24 h
Description: Antibacterial activity against Pseudomonas aeruginosa ATCC 9027 assessed as growth inhibition after 24 hr by microdilution method

Helicobacter pylori [11] = assay: Antibacterial activity against Helicobacter pylori strain 1 assessed as diameter of growth inhibition zone at 32 ug/disk after 3-5 days by filter paper disk diffusion method; conditions: read-out: DIZ
Helicobacter pylori [12] = assay: Antibacterial activity against Helicobacter pylori strain 3 assessed as diameter of growth inhibition zone at 16 ug/disk after 3-5 days by filter paper disk diffusion method; conditions: read-out: DIZ
Helicobacter pylori [13] = assay: Antibacterial activity against Helicobacter pylori strain 1 assessed as diameter of growth inhibition zone at 64 ug/disk after 3-5 days by filter paper disk diffusion method; conditions: read-out: DIZ

Structure (SMILES)	zone of inhibition at 8 µg/disc (Helicobacter pylori [1]) [mm]	MIC (Escherichia coli) [µg/mL]	zone of inhibition at 32 µg/disc (Helicobacter pylori [2]) [mm]	MIC [3] [µg/mL]	zone of inhibition at 8 µg/disc (Helicobacter pylori [4]) [mm]	zone of inhibition at 16 µg/disc (Helicobacter pylori [5]) [mm]	zone of inhibition at 64 µg/disc (Helicobacter pylori [6]) [mm]	MIC (Bacillus subtilis) [µg/mL]	MIC (Staphylococcus aureus) [µg/mL]	zone of inhibition at 64 µg/disc (Helicobacter pylori [7]) [mm]	zone of inhibition at 16 µg/disc (Helicobacter pylori [8]) [mm]	zone of inhibition at 32 µg/disc (Helicobacter pylori [9]) [mm]	MIC (Klebsiella pneumoniae) [µg/mL]	zone of inhibition at 8 µg/disc (Helicobacter pylori [10]) [mm]	MIC (Pseudomonas aeruginosa) [µg/mL]	zone of inhibition at 32 µg/disc (Helicobacter pylori [11]) [mm]	zone of inhibition at 16 µg/disc (Helicobacter pylori [12]) [mm]	zone of inhibition at 64 µg/disc (Helicobacter pylori [13]) [mm]
COc1ccc(-c2csc(/N=C3\NC(=O)/C(=C/C4C(=O)Nc5ccccc54)S3)n2)cc1 (configuration not stated)	6	100 (≈ 223 µM)	6	100 (≈ 223 µM)	6	6	6	> 100	> 100	6	6	6	> 100	6	> 100	6	6	6
O=C1N/C(=N\c2nc(-c3ccccc3)cs2)S/C1=C\c1ccc([N+](=O)[O-])o1	10	> 100	18	25 (≈ 62.7 µM)	10	12	23	50 (≈ 125 µM)	50 (≈ 125 µM)	20	13	18	> 100	13	> 100	15	15	20
COc1ccc(-c2csc(/N=C3\NC(=O)/C(=C/c4ccc([N+](=O)[O-])s4)S3)n2)cc1	22	100 (≈ 225 µM)	35	> 100	30	32	39	> 100	> 100	35	25	30	> 100	22	> 100	27	25	30
O=C1N/C(=N\c2nccs2)S/C1=C\c1ccc([N+](=O)[O-])s1	36	> 100	30	0.39 (≈ 1.15 µM)	25	28	34	0.78 (≈ 2.3 µM)	1.56 (≈ 4.61 µM)	45	40	40	> 100	33	> 100	42	35	45
O=C1N/C(=N\c2nccs2)S/C1=C\C1C(=O)Nc2ccccc21 (configuration not stated)	10	> 100	18	12.5 (≈ 36.5 µM)	12	14	20	6.25 (≈ 18.3 µM)	25 (≈ 73 µM)	15	12	14	> 100	10	> 100	13	10	15
O=C1N/C(=N\c2nc3ccccc3s2)S/C1=C\c1ccc([N+](=O)[O-])o1	20	3.12 (≈ 8.39 µM)	26	0.39 (≈ 1.05 µM)	22	24	30	0.39 (≈ 1.05 µM)	0.97 (≈ 2.6 µM)	34	24	30	6.25 (≈ 16.8 µM)	25	> 100	28	28	33
COc1ccc(-c2csc(/N=C3\NC(=O)/C(=C/c4ccc([N+](=O)[O-])o4)S3)n2)cc1	≤ 6	> 100	19	12.5 (≈ 29.2 µM)	15	17	20	12.5 (≈ 29.2 µM)	25 (≈ 58.3 µM)	26	10	19	> 100	12	100 (≈ 233 µM)	12	16	14
Cn1c(/C=C2\S/C(=N/c3nc4ccccc4s3)NC2=O)ccc1[N+](=O)[O-]	23	> 100	33	25 (≈ 64.9 µM)	27	29	35	12.5 (≈ 32.4 µM)	25 (≈ 64.9 µM)	30	26	26	25 (≈ 64.9 µM)	22	> 100	29	24	32
O=C1N/C(=N\c2nc3ccccc3s2)S/C1=C\C1C(=O)Nc2ccccc21 (configuration not stated)	6	> 100	16	> 100	11	13	18	> 100	> 100	10	6	6	> 100	6	> 100	10	6	13
